In patent US4551477A, “Esters of alkoxy-acylderivatives of carnitine and pharmaceutical compositions containing same” (Sigma-Tau Industrie Farmaceutiche Riunite S.P.A., priority 1974, dated 1985):

Tests used:
[1] = tested on: mice; assay: Antiarrhythmic (antifibrillatory) effect, aconitine-induced arrhythmia in mice; type: in vivo; conditions: Mus musculus, iv, read-out: Antifibrillatory activity, % reduction
Protocol: (c) Antiarrhythmic effect
In order to evaluate the antiarrhythmic activity of the carnitine derivatives of this invention studied with in vivo tests in addition to and in comparison with the currently employed in vitro tests, the method disclosed by Nwangwu et al. (Arch. Int. Pharmacodyn., 1977, 229, 219) was used.
According to this method an aconitine solution is injected into the caudal vein of mice and the onset time of arrhythmia and tachycardia after 2 to 60 minutes from administration of the compounds under examination is recorded.
The antiarrhythmic activity calculated from the increase in the latency time of the onset of the arrhythmias of the treated animals in comparison with the controls, is illustrated in the Table.

[2] = tested on: mice; assay: Adrenaline-antagonizing effect in mice; type: in vivo, male Albino Swiss mice; conditions: Mus musculus, ip, 30 min before adrenaline, mortality checked for 36 hours, read-out: Antiadrenaline activity, % mortality reduction; for responders at 50 mg/kg: dose 50 mg kg^-1 i.p.; for responders at 300 mg/kg: dose 300 mg kg^-1 i.p.; for responders at 100 mg/kg: dose 100 mg kg^-1 i.p.; for responders at 70 mg/kg: dose 70 mg kg^-1 i.p.
Protocol: (d) Adrenaline-antagonizing effect
Groups of ten male Albino Swiss mice, weighing 12-22 g, were intraperitoneally administered either with the esters of the present invention or with saline (control) and, after 30 minutes, with adrenaline (treated) at a dose capable of bringing about death to 100% of the control animals due to ventricular fibrillation and cardiac lesions ensuing from increase in frequency, pressure and oxygen uptake from the myocardium.
Mortality was checked for 36 hours and the effect of the compounds expressed as percentage of surviving animals, is shown in the Table.

[3] = Acute toxicity (LD50) in mice; conditions: mouse, in vivo, ip
From the text: (a) Acute toxicity (LD50)
Acute toxicity was investigated by using the method disclosed by Weil C. S. in "Tables for convenient calculation of median-effective dose (LD50 or ED50) and instructions in their use", Biometrics, 249-253, 1952.
The tolerance of the compounds under examination was investigated in mice after administration by the intraperitoneal or oral route. […] (see the Table).

[4] = tested on: rabbit isolated heart; assay: Inotropic effect on rabbit isolated heart (Langendorff) after anoxia; conditions: Oryctolagus cuniculus, 10 min, dose 10^-5 gl^-1, 10 minutes after interruption of the anoxic period, increase against controls
Protocol: Rabbit hearts isolated by the Langendorff method were perfused with oxygenized Ringer solution at 38.2° C. The isometric contractions, electrogardiogram and coronary flow were recorded using a "Battaglia-Rangoni" polygraph. By removing the oxygen from the perfusion fluid, metabolic damage was induced in the cardiac muscle, up to an 80% reduction in the cardiac contractile force.
Under these conditions of prolonged anoxia the aerobic glycolysis of the myocardium is slowed down, accompanied by the storage of acid catabolites due to both the accumulation of pyruvic acid and its conversion to lactic acid which cannot be utilized because of the depression of pyridine enzymes, such as LDH (lactodehydrogenase). This has repercussions on the anaerobic glycolysis affecting an ever increasing number of enzymes, accompanied by a progressive and increasingly critical exhaustion of the myocardium. Thus a whole series of cardiac muscle fatigue levels occurs which can be observed by the behavior of the examined parameters, namely the contractile force, coronary flow, heart rate and cardiac rhythm. As soon as the contractile force was reduced by 80%, the perfusion fluid was once again oxygenized either without adding other compounds (controls) or with the addition of the compounds under examination.
In the Table there are shown the percentage value of increase against the controls.

| Compound | inhibition in vivo at 50 mg/kg [1] [%] | LD50 [3] [mg/kg] | activation at 0.01 µg/mL [4] [%] | responders at 100 mg/kg [2] [%] | also measured |
| --- | --- | --- | --- | --- | --- |
| CCCOC(=O)CC(C[N+](C)(C)C)OC(=O)COC (centres unmarked) [R = methoxyacetyl; R' = propyl] | 100 | 650 | 78 |  | responders at 50 mg/kg [2]: 75% |
| COCC(=O)OC(CC(=O)OC)C[N+](C)(C)C (centres unmarked) [R = methoxyacetyl; R' = methyl] |  | 1200 | 72 |  | inhibition in vivo at 300 mg/kg [1]: 75%; responders at 450 mg/kg ([2]; dose 450 mg kg^-1 i.p.): 70% |
| CCOCC(=O)OC(CC(=O)OC)C[N+](C)(C)C (centres unmarked) [R = ethoxyacetyl; R' = methyl] |  | 1100 | 55 |  | inhibition in vivo at 150 mg/kg [1]: 90%; responders at 300 mg/kg [2]: 75% |
| CCCOC(=O)CC(C[N+](C)(C)C)OC(=O)COCC (centres unmarked) [R = ethoxyacetyl; R' = propyl] | 75 | 620 | 49 | 75 |  |
| CCCCOC(=O)CC(C[N+](C)(C)C)OC(=O)COC (centres unmarked) [R = methoxyacetyl; R' = butyl] |  | 550 | 55 | 70 | inhibition in vivo at 40 mg/kg [1]: 75% |
| CCOCC(=O)OC(CC(=O)OCC)C[N+](C)(C)C (centres unmarked) [R = ethoxyacetyl; R' = ethyl] |  | 600 | 68 |  | inhibition in vivo at 35 mg/kg [1]: 65%; responders at 50 mg/kg [2]: 50% |
| CCCCOC(=O)CC(C[N+](C)(C)C)OC(=O)COCC (centres unmarked) [R = ethoxyacetyl; R' = butyl] |  | 600 | 58 | 75 | inhibition in vivo at 40 mg/kg [1]: 75% |
| CCOCC(=O)OC(CC(=O)OCC(C)C)C[N+](C)(C)C (centres unmarked) [R = ethoxyacetyl; R' = isobutyl, ethoxyacetyl carnitine isobutyl ester] |  | 750 | 70 |  | inhibition in vivo at 10 mg/kg [1]: 70%; responders at 70 mg/kg [2]: 50% |
| COCC(=O)OC(CC(=O)OCC(C)C)C[N+](C)(C)C (centres unmarked) [R = methoxyacetyl; R' = isobutyl, methoxyacetyl carnitine isobutyl ester] |  | 690 | 79 |  | inhibition in vivo at 75 mg/kg [1]: 85%; responders at 300 mg/kg [2]: 60% |
| COC(C)C(=O)OC(CC(=O)OC(C)C)C[N+](C)(C)C (centres unmarked) [R = 2-methoxypropionyl; R' = isopropyl, 2-methoxy propionyl carnitine isopropyl ester] | 68 | 850 | 70 | 58 |  |
| CCOC(C)C(=O)OC(CC(=O)OC(C)C)C[N+](C)(C)C (centres unmarked) [R = 2-ethoxypropionyl; R' = isopropyl] | 70 | 1200 | 50 |  | responders at 300 mg/kg [2]: 50% |
| COCC(=O)OC(CC(=O)OC(C)C)C[N+](C)(C)C (centres unmarked) [R = methoxyacetyl; R' = isopropyl] | 80 | 800 | 55 |  | responders at 50 mg/kg [2]: 75% |
| CCOC(=O)CC(C[N+](C)(C)C)OC(=O)COC (centres unmarked) [R = methoxyacetyl; R' = ethyl] | 70 | 550 | 58 |  | responders at 70 mg/kg [2]: 70% |
| CCOCC(=O)OC(CC(=O)OC(C)C)C[N+](C)(C)C (centres unmarked) [R = ethoxyacetyl; R' = isopropyl] | 70 | 700 | 72 | 60 |  |
